Laboratory results: PMC11253855, “Phosphonodiamidate prodrugs of phosphoantigens (ProPAgens) exhibit potent Vγ9/Vδ2 T cell activation and eradication of cancer cells” (RSC Medicinal Chemistry, 2024)

Assays:
[1] = tested on: cancer patients; design: method as in PMID 18301889, PMID 20563721; settings: in combination with a low dose of IL-2; cited from earlier work
[2] = Human serum stability assay (31P NMR); format: in vitro ADME; settings: 37 °C, read-out: human serum stability t1/2
Procedure: Upon synthesis, we first studied whether these phosphonodiamidate ProPAgens are stable in human serum. As a representative of this class of phosphonodiamidate ProPAgens in the serum stability studies, we chose ProPAgen 9b, which has an iPr ester like the two FDA-approved phosphoramidate prodrugs, sofosbuvir and tenofovir alafenmide.[24,33] Thus, ProPAgen 9b was incubated with human serum at 37 °C for […] and monitored the sample by ^31P NMR, as we reported previously.[20] […] Following the incubation of the phosphonodiamidate ProPAgen 9b with human serum and monitoring of the sample by ^31P-NMR, these original 9b^31P-NMR peaks remained present through the 7.5 h of the study, and no new ^31P-NMR peaks were observed. […] This stability profile is in line with the aryloxy diester phosphoramidate prodrugs of these monophosphonates that we reported[20] before and that of the analogous symmetrical nucleoside phosphorodiamidate prodrugs.[26]
Fig. 2 Stability of the HMBP phosphonodiamidate ProPAgen 9b in human serum at 37 °C for 7.5 h as monitored by ^31P NMR. […]
This experiment was carried out as previously reported.[20,26,40] […] After recording the first ^31P NMR data, 0.3 mL human serum (Merck Life Sciences) was added and monitored by NMR. […] Recorded data were processed and analyzed with Bruker Topspin 2.1 software.

[3] = tested on: Vγ9/Vδ2 T cells; assay: In vitro Vγ9/Vδ2 T cell activation assay (PBMCs, CD69+ CD25+ by flow cytometry); format: cell-based, human; settings: Homo sapiens, T-cell, read-out: EC50 (activation of Vγ9/Vδ2 T cells)
Procedure: Subsequently, we studied the ability of these HMBP phosphonodiamidate ProPAgens to activate Vγ9/Vδ2 T cells and elicit their lysis of cancer cells in vitro. For this, peripheral blood mononuclear cells (PBMCs) derived from healthy donors and containing Vγ9/Vδ2 T cells were incubated with increasing concentrations of zoledronate or phosphonodiamidate HMBP ProPAgens 9a–d and 14a–d (up to 100 μM) (Fig. 4). Peripheral blood γδ T cells lack appreciable levels of surface CD69 or CD25 under steady-state conditions, but TCR stimulation upregulates both T cell activation markers.[6] Thus, PAg-responsive Vγ9/Vδ2 T cells were then assessed for the upregulation of CD69 and CD25.
Fig. 4 In vitro phosphonodiamidate ProPAgen-mediated activation of Vγ9/Vδ2 T cells, following overnight incubation with zoledronate, and HMBP ProPAgens 9a–d and 14a–d. Levels of activation are represented as % of Vγ9/Vδ2 T cells that are CD69+ CD25+. Data is shown as mean ± SE (n = 4). (A) Activation of Vγ9/Vδ2 stimulated by phosphonodiamidate ProPAgens 9a–d. (B) Activation of Vγ9/Vδ2 stimulated by ProPAgens 14a–d. (C) Activation of Vγ9Vδ2 stimulated by zoledronate (Zol). (D) EC50 values were calculated using GraphPad Prism v9 based on the results of the activation assay.
As for the activation of Vγ9/Vδ2 T cells by the phosphonodiamidate ProPAgens (9a–d and 14a–d), these were initially tested using a concentration range from […] to 100 μM (Fig. 4A and B).
Healthy donor peripheral blood mononuclear cells (PBMCs) were harvested as previously described.[20] To assess the activation of Vγ9/Vδ2 T cells, PBMCs were seeded into U-bottom tissue culture-treated 96-well plates at a cell density of 500 000 cells per well. The cells were incubated with medium-only (control), in the presence of zoledronate at 10 pM to 100 μM, and with HMBP ProPAgens initially at 10 pM to 100 μM, and then at 1 aM to 100 μM for compounds 9d and 14d in a separate experiment. The cells were incubated at 37 °C/5% CO2 overnight, and stained by flow cytometry for the following markers: viability (Zombie Aqua 1 : 400), CD3 (BV421 1 : 100), CD8 (BV650 1 : 200), Vγ9 (PEcy5 1 : 400), Vδ2 (APC 1 : 200), CD69 (PE 1 : 25), CD25 (FITC 1 : 100). The samples were acquired via LSRFortessa X20 (BD Biosciences), and the data obtained were analyzed using FlowJo v10 and GraphPad Prism v9 software.

[4] = target: T1, carboxypeptidase Y (Saccharomyces cerevisiae, UniProt P00729); assay: Carboxypeptidase Y assay (31P NMR); format: in vitro ADME; settings: recombinant carboxypeptidase Y, 37 °C, 6.5 h
T1 sequence (P00729 112-532): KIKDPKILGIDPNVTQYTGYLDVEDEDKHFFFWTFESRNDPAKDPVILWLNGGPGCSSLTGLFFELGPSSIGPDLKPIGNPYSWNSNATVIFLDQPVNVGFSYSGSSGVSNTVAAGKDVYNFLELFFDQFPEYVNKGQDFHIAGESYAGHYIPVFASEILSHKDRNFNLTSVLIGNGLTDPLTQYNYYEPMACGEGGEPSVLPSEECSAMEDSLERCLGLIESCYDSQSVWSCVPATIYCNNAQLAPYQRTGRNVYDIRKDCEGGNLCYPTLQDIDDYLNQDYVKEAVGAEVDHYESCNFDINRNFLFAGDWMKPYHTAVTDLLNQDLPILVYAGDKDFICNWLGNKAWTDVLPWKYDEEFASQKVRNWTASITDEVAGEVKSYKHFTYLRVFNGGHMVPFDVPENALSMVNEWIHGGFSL
Procedure: Fig. 3 Metabolism of diamidate ProPAgens.
With this postulated mechanism of phosphonodiamidate prodrugs in mind, we subsequently incubated the phosphonodiamidate ProPAgen 9b with recombinant carboxypeptidase Y at 37 °C and monitored the reaction by ^31P-NMR for 6.5 h. […] Upon addition of carboxypeptidase Y and within 0.5 h, a new ^31P NMR triplet (δP = 6.82, 7.27 and 7.72 ppm) appeared and became prominent as the assay proceeded while the original ^31P NMR peaks (δP = 14.16, 14.67 and 15.14 ppm) corresponding to ProPAgen 9b reduced over time.
This experiment was carried out as previously reported.[20,26,40] 5.0 mg of the phosphonodiamidate ProPAgen 9b was dissolved in 0.2 mL of acetone, and 0.4 mL of Trizma buffer (pH 7.4) was added followed by 0.5 mg carboxypeptidase Y in 0.2 ml Trizma buffer (pH 7.4). The experiment was run on NMR phosphorus mode and scanned every half an hour for 6.5 h. The incubation temperature was 37 °C. Recorded data were processed and analyzed with Bruker Topspin 2.1 software.

CC(O)(CBr)CCOP(=O)(O)OP(=O)(O)O (stereo not shown) [BrHPP, bromohydrin pyrophosphate]
safety and tolerability in cancer patients [1]: safe and well tolerated

C/C(=C\CC(F)(F)P(=O)(N[C@@H](C)C(=O)OC(C)C)N[C@@H](C)C(=O)OC(C)C)CO [9b, Diisopropyl 2,2′-((((E)-1,1-difluoro-5-hydroxy-4-methylpent-3-en-1-yl)phosphoryl)bis(azanediyl))(2S,2′S)-dipropionate]
half-life at 10 mg/mL [2]: > 7.5 h | EC50 [3]: 167 nM | carboxypeptidase Y-mediated breakdown [4]: not fully metabolised
